Test results from patent US8784782B2 (Senomyx, Inc., priority 2005, dated 2014).
Like-named read-outs stand apart in the source and are kept apart here.

Legend:
[1] = target: T1, hT1R1/hT1R3 umami receptor expressed in an HEK293 cell line (Homo sapiens, UniProt Q7RTX0+Q7RTX1); experiment: In vitro hT1R1/hT1R3 umami taste receptor activation assay (FLIPR, dose response); type: cell-based
T1 construct: expressed in transfected cells; host or cells: HEK293 cell line derivative, hT1R1/hT1R3-HEK293-Gα15, clone I-17, mifepristone-induced
T1 sequence (Q7RTX1 21-841): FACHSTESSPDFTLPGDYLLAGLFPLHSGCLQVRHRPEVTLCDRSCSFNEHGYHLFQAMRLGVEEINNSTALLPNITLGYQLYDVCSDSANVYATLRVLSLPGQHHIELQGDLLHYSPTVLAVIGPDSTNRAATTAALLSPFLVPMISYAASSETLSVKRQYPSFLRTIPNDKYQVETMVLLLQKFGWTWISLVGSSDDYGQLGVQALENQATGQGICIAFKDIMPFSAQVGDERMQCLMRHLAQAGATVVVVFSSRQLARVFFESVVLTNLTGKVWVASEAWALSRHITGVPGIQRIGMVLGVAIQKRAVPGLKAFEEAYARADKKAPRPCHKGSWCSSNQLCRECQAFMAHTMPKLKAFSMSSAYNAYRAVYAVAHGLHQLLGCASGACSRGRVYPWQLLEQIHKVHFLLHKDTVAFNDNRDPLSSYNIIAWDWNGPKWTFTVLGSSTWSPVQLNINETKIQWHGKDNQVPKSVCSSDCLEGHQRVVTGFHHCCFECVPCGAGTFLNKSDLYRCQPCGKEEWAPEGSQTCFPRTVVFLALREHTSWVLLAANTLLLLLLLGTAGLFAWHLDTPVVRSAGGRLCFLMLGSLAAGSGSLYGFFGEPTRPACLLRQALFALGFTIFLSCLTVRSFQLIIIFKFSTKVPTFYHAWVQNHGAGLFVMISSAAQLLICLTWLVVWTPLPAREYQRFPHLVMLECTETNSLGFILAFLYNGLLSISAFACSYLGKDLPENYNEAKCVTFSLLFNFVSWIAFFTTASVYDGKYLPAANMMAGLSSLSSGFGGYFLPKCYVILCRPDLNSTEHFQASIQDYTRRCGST
T1 sequence (Q7RTX0 21-852): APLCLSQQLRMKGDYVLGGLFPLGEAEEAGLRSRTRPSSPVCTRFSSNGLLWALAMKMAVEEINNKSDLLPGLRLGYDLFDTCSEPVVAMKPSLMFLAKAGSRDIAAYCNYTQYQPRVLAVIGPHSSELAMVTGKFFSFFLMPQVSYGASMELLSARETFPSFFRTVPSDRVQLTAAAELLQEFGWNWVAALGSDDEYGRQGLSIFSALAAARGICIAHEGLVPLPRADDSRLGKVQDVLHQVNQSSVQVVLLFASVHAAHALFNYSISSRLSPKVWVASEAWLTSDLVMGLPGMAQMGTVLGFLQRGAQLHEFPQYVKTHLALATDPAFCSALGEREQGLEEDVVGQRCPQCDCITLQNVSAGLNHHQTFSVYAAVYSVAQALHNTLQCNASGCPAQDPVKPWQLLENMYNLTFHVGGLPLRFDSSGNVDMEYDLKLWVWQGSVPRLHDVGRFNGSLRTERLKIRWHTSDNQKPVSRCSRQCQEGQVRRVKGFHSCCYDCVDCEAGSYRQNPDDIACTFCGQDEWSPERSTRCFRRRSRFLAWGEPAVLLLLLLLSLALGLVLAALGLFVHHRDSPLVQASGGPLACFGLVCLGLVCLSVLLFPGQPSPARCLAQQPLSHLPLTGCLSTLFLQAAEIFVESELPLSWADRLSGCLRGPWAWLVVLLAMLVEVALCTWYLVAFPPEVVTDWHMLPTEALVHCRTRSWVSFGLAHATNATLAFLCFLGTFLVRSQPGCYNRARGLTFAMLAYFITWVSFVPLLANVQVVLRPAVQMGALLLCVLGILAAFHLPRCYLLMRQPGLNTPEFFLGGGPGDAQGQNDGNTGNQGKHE
Procedure: Activity was determined using an automated fluorometric imaging assay on a FLIPR instrument ([…], Molecular Devices, Sunnyvale, Calif.) (designated FLIPR assay). […] After replacement with 25 μl D-PBS, stimulation was performed in the FLIPR instrument and at room temperature by the addition of 25 μl D-PBS supplemented with different stimuli at concentrations corresponding to twice the desired final level. Receptor activity was quantified by determining the maximal fluorescence increases (using a 480 nm excitation and 535 nm emission) after normalization to basal fluorescence intensity measured before stimulation.
Activities were normalized to the response obtained with 60 mM monosodium glutamate, a concentration that elicits maximum receptor response.

[2] = target: T1, hT1R1/hT1R3 umami receptor expressed in an HEK293 cell line; experiment: Umami taste enhancement activity assay (EC50 ratio vs. MSG, FLIPR); type: cell-based; conditions: for Ec50 ratio (vs. MSG): Table A
Procedure: A series of measurements of the dose response is run in solutions comprising MSG alone, then a second dose response is run with MSG in combination with predetermined amounts of a candidate compound of Formula (I) at the same time.
Typical compound concentrations tested were 30 μM, 10 μM, 3 μM, 1 μM, 0.3 μM, 0.1 μM and 0.03 μM. The relative efficacy of compounds of Formula (I) at enhancing the receptor was determined by calculating the magnitude of a shift in the EC50 for monosodium glutamate. Enhancement was defined as a ratio (EC50R) corresponding to the EC50 of monosodium glutamate, determined in the absence of the test compound, divided by the EC50 of monosodium glutamate, determined in the presence of the test compound.
Stated alternatively, “EC50 ratio” as compared to MSG is calculated based on the following definitions: EC50 Ratio vs. MSG=EC50 (MSG)/EC50 (MSG+[Compound]) • wherein “[compound]” refers to the concentration of the compound of Formula (I) used to elicit (or enhance or potentiate) the MSG dose response.

[3] = system: un-induced I-17 cells; experiment: FLIPR assay on un-induced I-17 cells (receptor dependency control); type: cell-based; conditions: un-induced I-17 cells (no mifepristone)
Procedure: In order to determine the dependency of hT1R1/hT1R3 for the cell response to different stimuli, selected compounds were subjected to a similar analysis on I-17 cells that had not been induced for receptor expression with mifepristone (designated as un-induced I-17 cells). […] Compounds were presented to un-induced umami cells at […]—or three times the maximum stimulation used in the dose-response analysis.

[4] = read-out: EC50 for activation of a hT1R1/hT1R3 umami receptor expressed in an HEK293 cell line
[5] = Table A, triazoles, read-out: Umami EC50

| SMILES | EC50 [1, 5] [nM] | Ec50 ratio (vs. MSG) ([2]; @ 0.3 μM compound) | other results |
| --- | --- | --- | --- |
| Cc1ccc(-c2nc(SCc3ccccn3)n[nH]2)c(C)c1 [Example 3, 2-((5-(2,4-dimethylphenyl)-1H-1,2,4-triazol-3-ylthio)methyl)pyridine] | – | – | EC50 [1, 4]: 90 nM; EC50 ratio (enhanced the effectiveness of monosodium glutamate) ([2]; compound present at 0.01 μM): 4.3; melting point: 112 to 114 °C |
| Cc1cc(-c2nc(SCc3ccccn3)n[nH]2)c(C)o1 [Example 7, 2-((5-(2,5-dimethylfuran-3-yl)-1H-1,2,4-triazol-3-ylthio)methyl)pyridine] | – | – | EC50 [1, 4]: 2070 nM; EC50 ratio (enhanced the effectiveness of monosodium glutamate) ([2]; compound present at 0.1 μM): 2.1 |
| Cc1cc(-c2nc(SCCc3ccccn3)n[nH]2)oc1C [Example 8, 2-(2-(5-(4,5-dimethylfuran-2-yl)-1H-1,2,4-triazol-3-ylthio)ethyl)pyridine] | – | – | EC50 [1, 4]: 1870 nM; EC50 ratio (enhanced the effectiveness of monosodium glutamate) ([2]; compound present at 0.1 μM): 2.66 |
| COc1ccc(Cc2nc(SCc3ccccn3)n[nH]2)c(OC)c1 [Example 9, 2-((5-(2,4-dimethoxybenzyl)-1H-1,2,4-triazol-3-ylthio)methyl)pyridine] | – | – | EC50 [1, 4]: 1200 nM; EC50 ratio (enhanced the effectiveness of monosodium glutamate) ([2]; compound present at 0.1 μM): 2.66 |
| Cc1ccc(-c2n[nH]c(SCc3ccccn3)n2)cc1 [Example A1, 2-((5-p-tolyl-2H-1,2,4-triazol-3-ylthio)methyl)pyridine] | 170 | – | Ec50 ratio (vs. MSG) ([2]; @ 0.01 μM compound): 2.19 |
| COc1cccc(-c2n[nH]c(SCc3ccccn3)n2)c1OC [Example A2, 2-((5-(2,3-dimethoxyphenyl)-2H-1,2,4-triazol-3-ylthio)methyl)pyridine] | 180 | – | Ec50 ratio (vs. MSG) ([2]; @ 0.01 μM compound): 1.9 |
| COc1ccc(-c2n[nH]c(SCc3ccccn3)n2)c(C)c1 [Example A3, 2-((5-(4-methoxy-2-methylphenyl)-2H-1,2,4-triazol-3-ylthio)methyl)pyridine] | 240 | 2.01 | – |
| COc1ccc(-c2n[nH]c(SCc3ccccn3)n2)c(OC)c1 [Example A4, 2-((5-(2,4-dimethoxyphenyl)-2H-1,2,4-triazol-3-ylthio)methyl)pyridine] | 370 | – | Ec50 ratio (vs. MSG) ([2]; @ 0.1 μM compound): 6.22 |
| CC(C)c1ccc(-c2n[nH]c(SCc3ccccn3)n2)cc1 [Example A5, 2-((5-(4-isopropylphenyl)-2H-1,2,4-triazol-3-ylthio)methyl)pyridine] | 420 | – | Ec50 ratio (vs. MSG) ([2]; @ 0.03 μM compound): 1.5 |
| CCOc1ccc(-c2n[nH]c(SCc3ccccn3)n2)cc1 [Example A7, 2-((5-(4-ethoxyphenyl)-2H-1,2,4-triazol-3-ylthio)methyl)pyridine] | 740 | – | Ec50 ratio (vs. MSG) ([2]; @ 0.03 μM compound): 2.33 |
| c1ccc(CSc2nc(-c3ccc4c(c3)OCO4)n[nH]2)nc1 [Example A10, 2-((5-(benzo[d][1,3]dioxol-5-yl)-2H-1,2,4-triazol-3-ylthio)methyl)pyridine] | 1180 | 6.01 | – |
| Cc1ccccc1-c1n[nH]c(SCc2ccccn2)n1 [Example A12, 2-((5-o-tolyl-2H-1,2,4-triazol-3-ylthio)methyl)pyridine] | 1860 | – | Ec50 ratio (vs. MSG) ([2]; @ 0.1 μM compound): 1.97 |
| COc1ccccc1-c1n[nH]c(SCc2ccccn2)n1 [Example A13, 2-((5-(2-methoxyphenyl)-2H-1,2,4-triazol-3-ylthio)methyl)pyridine] | 2120 | 7.36 | – |
| Clc1cccc(-c2n[nH]c(SCc3ccccn3)n2)c1 [Example A15, 2-((5-(3-chlorophenyl)-2H-1,2,4-triazol-3-ylthio)methyl)pyridine] | 2540 | – | Ec50 ratio (vs. MSG) ([2]; @ 0.1 μM compound): 2 |
| COc1cc(OC)cc(-c2n[nH]c(SCc3ccccn3)n2)c1 [Example A16, 2-((5-(3,5-dimethoxyphenyl)-2H-1,2,4-triazol-3-ylthio)methyl)pyridine] | 2580 | 3.16 | – |
| c1ccc(-c2n[nH]c(SCc3ccccn3)n2)cc1 [Example A17, 2-((5-phenyl-2H-1,2,4-triazol-3-ylthio)methyl)pyridine] | 2890 | 3.02 | – |
| COc1ccc(-c2n[nH]c(SCc3ccccn3)n2)cc1OC [Example A18, 2-((5-(3,4-dimethoxyphenyl)-2H-1,2,4-triazol-3-ylthio)methyl)pyridine] | 4080 | 2.13 | – |
| CCOc1ccccc1-c1n[nH]c(SCc2ccccn2)n1 [Example A19, 2-((5-(2-ethoxyphenyl)-2H-1,2,4-triazol-3-ylthio)methyl)pyridine] | 6490 | 2.01 | – |
| COc1cc(OC)cc(-c2n[nH]c(SCCc3ccccn3)n2)c1 [Example A20, 2-(2-(5-(3,5-dimethoxyphenyl)-2H-1,2,4-triazol-3-ylthio)ethyl)pyridine] | 7370 | 4.84 | – |
| N[C@@H](CCC(=O)O)C(=O)[O-].[Na+] [monosodium glutamate] | – | – | functional response in the FLIPR assay [3]: do not show any functional response |
